Each structure is given as a SMILES string.

Series [1] is described as follows: Etching (dissolution) of deposited layers by IPA/water mixed solvent. The class given is physicochemical. The following applies: IPA 60 wt %; for etching rate: deposited film. From the text:
In the present invention, a larger etching rate means a higher dissolution rate. In addition, a larger etching rate means a higher solubility of a layer having a material of interest in the solvent (polar solvent).
FIG. 3 is a graph illustrating thickness changes in the compound 1 and the compound A2 over an etching time. Here, FIG. 3 illustrates the results of the etching of the respective layers when a mixed solvent obtained by mixing isopropyl alcohol (IPA) and water so that IPA may account for 60 wt % (hereinafter, sometimes referred to as “IPA/water mixed solvent”) is used as a solvent formed of a polar solvent.
When the etching rates of the respective layers are calculated with their etching conditions made identical to each other, the etching rate of the layer A is 0.008 nm/sec but the etching rate of the layer B is 0.87 nm/sec, that is, a ratio of the latter to the former is about 100.
Here, a ratio (n) between the etching rates of the organic compound layer (corresponding to the layer A) and the release layer (corresponding to the layer B) by the polar solvent can be represented like the following equation.
Performed next was a second processing step of removing a part of the release layer 30 with a mixed solvent obtained by mixing water and IPA so that an IPA concentration was 60 wt % to reduce the thickness of the release layer 30. It should be noted that as the etching rate of the compound (phenanthroline derivative represented by the formula (2)) constituting the release layer 30 in this example was 0.9 nm/sec, part of the release layer 30 was removed through immersion in the mixed solvent for 530 seconds so that the thinning was performed (FIG. 2M). As a result of the second processing step, the thickness of the release layer 30 became 20 nm. In addition, each release layer subjected to the thinning in the second processing step functions as the charge transport layer (electron transport layer) 23a, 23b, or 23c. Next, vacuum heating was performed at 80° C. so that the solvent remaining on the charge transport layer was removed.

A short description of series [2]: Solubility in IPA/water mixed solvent (FIG. 4). Type of series: physicochemical. The following applies: IPA concentration 80 wt %; per 1 g solvent. From the text: The solubility of a compound as a constituent material for each layer in the IPA/water mixed solvent varies depending on the weight ratio of IPA in the mixed solvent. FIG. 4 is a graph illustrating the solubilities of the compound 1 (condensed polycyclic hydrocarbon compound) and the compound A2 (heterocyclic compound) in the IPA/water mixed solvent (polar solvent). Here, in the graph of FIG. 4, the axis of abscissa indicates the weight percent concentration of IPA in the IPA/water mixed solvent, and the axis of ordinate indicates the amount of the condensed polycyclic hydrocarbon compound or heterocyclic compound to dissolve in 1 g of the solvent.

For `CC1(C)c2ccccc2-c2ccc(-c3ccc4ccc5ccc(-c6ccc7c(c6)C(C)(C)c6ccccc6-7)nc5c4n3)cc21` [compound A2], in series [1], the “thickness change over etching time (FIG. 3)” value is on record as “reduces over time” and the etching rate is 0.87 nm/s. Moreover, the “ratio (n) of etching rate of release layer (layer B, compound A2) to organic compound layer (layer A, compound 1)” value in series [1] (identical etching conditions) was “about 100”. This compound also yielded an etching rate in series [1] (listed as formula (2)) of 0.9 nm/s. For the same compound, the “amount dissolving in 1 g of the IPA/water mixed solvent” value in series [2] was found to be 73 µg.

Take `CC1(C)c2cc(-c3ccc4ccc5cccc6ccc3c4c56)ccc2-c2ccc(-c3ccc4ccc5cccc6ccc3c4c56)cc21` [compound 1]: in series [1], the “thickness change over etching time (FIG. 3)” value was “nearly no thickness reduction” and the etching rate was 0.008 nm/s. Moreover, the “amount dissolving in 1 g of the IPA/water mixed solvent” value in series [2] was determined as 5 µg.

As for `O=C1c2ccccc2OC2C=CC(c3cccc(-c4cccc(-c5cc(-c6cccc(-c7ccccc7)c6)cc(-c6cccc(C7C=CC=CC7)c6)c5)c4)c3)=CC12` (stereo not shown) [compound C1], the etching rate in series [1] was 1.5 nm/s.

As for `c1ccc(-c2cc(-c3ccccc3)cc(-c3cccc(-c4cccc(-c5ccc6c7ccccc7c7ccccc7c6c5)c4)c3)c2)cc1` [compound B1], the etching rate in series [1] turned out to be 1.3 nm/s.

The values above are taken from US8778727B2, “Method of manufacturing organic electroluminescence display device” (Canon Kabushiki Kaisha, priority 2011, dated 2014).
